Legend:
[1] = tested on: IL-1β production in human whole blood; assay: Ex vivo LPS-stimulated human whole blood, IL-1β; type: cell-based; details: LPS 100 ng/ml, 22 hours, one donor
Experimental: (§1) Venous blood from human donors was collected as 10 ml aliquots in tubes containing sodium heparin (BD Vacutainer from Becton Dickinson and Company, Franklin Lakes, N.Y.). Blood was added to sterile polystyrene round bottom 96-well tissue culture plates (Corning Costar) at 100 μl/well, omitting the outside wells. Media (RPMI Medium 1640 with L-glutamine, Invitrogen Corporation, Carlsbad, Calif.) was added to the blood in 90 μl aliquots for a total volume of 190 μl. Outside wells were filled with 200 μl of media. Blood was placed in a humidified 37° C. incubator with 5% CO2 while compounds were prepared (nearly 60 minutes).
(§2) Compounds were prepared from 10 mM stock solutions in dimethylsulfoxide (DMSO, Sigma-Aldrich). […] Final DMSO and ethanol concentrations in the assay were 0.1% and 1.5%. The samples were gently triturated twice to mix and replaced in the incubator. LPS stock (E. coli serotype 0111:B4, Sigma-Aldrich), stored in aliquots of 100 μg/ml in RPMI at −20° C., was diluted 1/50 in RPMI to make a working stock solution. After 60 minutes of incubation, 10 μl of the prepared LPS working stock was added to the blood to a final concentration of 100 ng/ml, omitting wells to be used as negative control. The samples were again gently triturated and the plates incubated overnight for 22 hours. Following incubation, the blood was centrifuged at 1500×g for 5 minutes and the plasma removed to either freeze at −20° C. or assay for cytokine release.
(§3) IL-1β, IFNγ, IL-6, and TNFα protein levels were measured using Meso Scale assay kits (Meso Scale Discovery, Gaithersburg, Md.). Reagents were allowed to come to room temperature. Meso Scale plates were blocked with 30 μl of human plasma/serum assay diluent with gentle shaking for 60 minutes at room temperature. Plates were washed 3× with wash buffer (PBS, Invitrogen Corporation, with 0.05% Tween-20, Sigma-Aldrich). Calibrators for standard curves were prepared in human plasma/serum assay diluent as a […] serial dilution to achieve final concentrations ranging from 50000 pg/ml to 3.2 pg/ml. Samples and calibrators were added at 20 μl/well, then incubated at room temperature with gentle shaking for 90 minutes. Plates were again washed 3 times with wash buffer. Detection antibody was diluted in human plasma/serum antibody diluent to 1 μg/ml and added to the plate at 20 μl/well. Plates were incubated as before for 60 minutes and washed again. Read Buffer T<4×) was diluted 1:1 with mqH2O to 2 times concentration and 150 μl added to each well. Plates were analyzed on the SECTOR Imager 6000 (Meso Scale Discovery) to generate raw signal values.
(§4) IL-1β, IFN-γ, IL-6, and TNFα sample values were verified to be within the calibrator standard curves. Individual values were compared to positive and negative controls (vehicle treated blood with LPS and vehicle treated blood without LPS, respectively) to generate % inhibition. Triplicate values were averaged for each donor. The values for two donors were averaged (only one donor was used for IL-1β) and graphed using 4-parameter fit curves in the GraFit 5.0.11 application.

[2] = tested on: IL-6 production in human whole blood; assay: Ex vivo LPS-stimulated human whole blood, IL-6; type: cell-based; details: LPS 100 ng/ml, 22 hours, mean of two donors
Experimental: as §1, §2, §3, §4

SMILES: C[C@]12C=CC(=O)C=C1CC[C@@H]1[C@@H]2[C@@H](O)C[C@@]2(C)[C@H]1CC[C@]2(O)C(=O)CO [Prednisolone]
- inhibition at 0.000457247 µM ([1]; 0.457247 nM): 9.65%
- inhibition at 0.00137174 µM ([1]; 1.371742 nM): 15.1%
- inhibition at 0.00411523 µM ([1]; 4.115226 nM): 21%
- inhibition at 0.0123457 µM ([1]; 12.34568 nM): 33.6%
- inhibition at 0.037037 µM ([1]; 37.03704 nM): 37.7%
- inhibition at 0.111111 µM ([1]; 111.1111 nM): 73.2%
- inhibition at 0.333333 µM ([1]; 333.3333 nM): 92.9%
- inhibition at 1 µM ([1]; 1000 nM): 94.9%
- inhibition at 0.000457247 µM ([2]; 0.457247 nM): 2.22%
- inhibition at 0.00137174 µM ([2]; 1.371742 nM): -0.941%
- inhibition at 0.00411523 µM ([2]; 4.115226 nM): -0.232%
- inhibition at 0.0123457 µM ([2]; 12.34568 nM): -0.417%
- inhibition at 0.037037 µM ([2]; 37.03704 nM): 5.03%
- inhibition at 0.111111 µM ([2]; 111.1111 nM): 11.7%
- inhibition at 0.333333 µM ([2]; 333.3333 nM): 40.3%
- inhibition at 1 µM ([2]; 1000 nM): 62.1%

Source: patent US7786097B2, “Tricyclic compounds, compositions and methods” (Pfizer Inc., priority 2007, dated 2010)
